Experimental data reported in paper PMC8201735 (BMC Pharmacology & Toxicology, 2021).
Read-outs that look alike come from different tables or passages of the source.

Experiments:
[1] = Plasma pharmacokinetics of remogliflozin etabonate and its metabolites during metformin treatment; assay type: in vivo, human; conditions: for AUC / Cmax / Tmax: human, plasma; for AUC: read-out: AUC(0-tau), geometric mean (%CVb); for Cmax: read-out: Cmax, geometric mean (%CVb)
Protocol: (§1) PK analysis was conducted by […] (Chapel Hill, NC, USA), under the direction of Clinical Pharmacokinetics/Modelling and Simulation, GSK using the non-compartmental analysis Model 200 (for extra vascular administration) of WinNonlin Professional Edition version 4.1 (Pharsight Corporation, Mountain View, CA). […] Descriptive statistics were used to summarize baseline demographics, safety data, and pharmacokinetic parameters. Geometric mean and % CVb (between-subject coefficient of variation) were calculated for all pharmacokinetic parameters except tmax. Comparisons of placebo with each active dose of RE were assessed in terms of change from baseline in fasting plasma lactate acid using repeated measures analysis of covariance model. The model included terms for baseline measurement, visit, treatment and visit-by-treatment interaction. The same model was applied to change from baseline in weighted means of day-time, night-time and 0-24 h of blood pressures. Within group treatment comparison was performed using mixed model on log transformed Cmax and AUC (0-last).

subjects with T2DM [2] = conditions: RE 500 mg BID and metformin 500 mg BID for 3 days; cited from earlier work
[3] = Fluid balance assessment (intake - urine output); assay type: in vivo, human; conditions: Placebo + Metformin
subjects with T2DM [4] = assay: Oral glucose tolerance test (75 g): weighted mean plasma glucose and insulin; assay type: in vivo, human; conditions: Day -1 (baseline); Placebo + Metformin
subjects with T2DM [5] = assay: Adverse event monitoring, RE co-administered with metformin for 13 days; assay type: in vivo, human
Excerpt: The study was comprised of three phases; run-in, randomization, and treatment. […] In treatment phase the patients were considered in two cohorts. […] The adverse events monitoring included recording of any adverse event (AE) and serious adverse event (SAE) reported or observed during the entire study and follow-up period. All the subjects were counseled to inform study staff of any AEs that occurred during the study. Any abnormal laboratory findings (e.g., clinical chemistry, hematology, and urinalysis) or other abnormal assessments (e.g., ECGs, vital signs, physical examination) that were judged by the investigator as clinically significant were recorded as AEs or SAE.

[6] = Plasma pharmacokinetics of metformin with and without RE; assay type: in vivo, human; conditions: for AUC / Cmax: human, plasma, oral, geometric mean; for AUC: Metformin AUC (0-tau); for Cmax: Metformin Cmax
Protocol: as §1

Body weight = assay type: in vivo, human; conditions: Placebo + Metformin
Protocol: Body weight measurement was performed at screening and during inpatient Days- 1, 2, 4, 8, 13, and 14.

subjects with T2DM [7] = assay: Surveillance for lactic acidosis: fasting plasma lactic acid concentration; assay type: in vivo, human
Protocol: The samples for acidosis analysis were collected at screening (following an overnight fast and prior to morning dose), once during the run-in phase, at baseline (Day- 1), mornings (prior to first dose and breakfast) of Days 1, 2, 3, and 4 (inpatient) and Days 6, 8, and 10 (outpatient) and Days 13 and 14 (inpatient). Subjects were not allowed to do rigorous exercise or physical labor during the treatment phase of the study and instructed to limit exercise 12 h before sampling.
Descriptive statistics were used to summarize baseline demographics, safety data, and pharmacokinetic parameters. Geometric mean and % CVb (between-subject coefficient of variation) were calculated for all pharmacokinetic parameters except tmax. Comparisons of placebo with each active dose of RE were assessed in terms of change from baseline in fasting plasma lactate acid using repeated measures analysis of covariance model. The model included terms for baseline measurement, visit, treatment and visit-by-treatment interaction. The same model was applied to change from baseline in weighted means of day-time, night-time and 0–24 h of blood pressures. Within group treatment comparison was performed using mixed model on log transformed Cmax and AUC (0-last).

subjects with T2DM [8] = assay: Oral glucose tolerance test (75 g): weighted mean plasma glucose and insulin; assay type: in vivo, human; conditions: Placebo + Metformin
Protocol: Oral glucose tolerance testing was performed on Day 1 and Day 13 using a 75 g oral glucose solution. Blood samples for the measurement of insulin and glucose were taken immediately before drug dosing (within 5 min of drug dosing), and at 30 min, 1, 1.5, 2, 3, 4, and 6 h following drug dosing.

[9] = oral, 500 mg, Day 1, after RE 500 mg BID + metformin, N = 16
[10] = oral, 500 mg, Day 13, after RE 500 mg BID + metformin, N = 15
[11] = oral, 750 mg, Day 1, after RE 750 mg BID + metformin, N = 17
[12] = oral, 750 mg, Day 13, after RE 750 mg BID + metformin, N = 16
[13] = Placebo BID + metformin, N = 17
[14] = Day 13, Metformin + Placebo group
[15] = Day 13 Metformin + RE 750 mg BID
[16] = Day -1 metformin alone, Metformin + Placebo group
[17] = Day -1 metformin alone, Metformin + RE 500 mg group
[18] = Day 13 Metformin + RE 500 mg BID
[19] = Day -1 metformin alone, Metformin + RE 750 mg group

For `Cc1c(Cc2ccc(OC(C)C)cc2)c(O[C@@H]2O[C@H](CO)[C@@H](O)[C@H](O)[C@H]2O)nn1C(C)C` [Remogliflozin, remogliflozin], the “AUC(0-tau) accumulation ratio Day 13 versus Day 1, point estimate (90% CI)” value ([1]; RE 500 mg + Metformin) was 1.00 (0.907–1.10), the “AUC(0-tau) accumulation ratio Day 13 versus Day 1, point estimate (90% CI)” value ([1]; RE 500 mg + Metformin, listed as remogliflozin) was 1.00 (0.91, 1.10) and the “AUC(0-tau) accumulation ratio Day 13 versus Day 1, point estimate (90% CI)” value ([1]; RE 750 mg + Metformin) was 0.82 (0.755–0.899). For the same molecule, the “AUC(0-tau) accumulation ratio Day 13 versus Day 1, point estimate (90% CI)” value ([1]; RE 750 mg + Metformin, listed as remogliflozin) was 0.82 (0.755, 0.899), the AUC [1, 9] was 4890 ng·h/mL and the Cmax [1, 9] was 2000 ng/mL. It also gave a Tmax ([1]; oral, 500 mg, Day 1, after RE 500 mg BID + metformin, N = 16, read-out: tmax, median (range)) of 0.77 h, an AUC [1, 10] of 4930 ng·h/mL and a Cmax [1, 10] of 1490 ng/mL. The Tmax ([1]; oral, 500 mg, Day 13, after RE 500 mg BID + metformin, N = 15, read-out: tmax, median (range)) was 3 h, the Tmax ([1]; oral, 500 mg, RE 500 mg group, read-out: Time of peak concentrations (range)) was 0.5 to 6 h and the AUC [1, 11] was 8520 ng·h/mL. It also gave a Cmax [1, 11] of 4010 ng/mL, a Tmax ([1]; oral, 750 mg, Day 1, after RE 750 mg BID + metformin, N = 17, read-out: tmax, median (range)) of 0.75 h and an AUC [1, 12] of 7000 ng·h/mL. The Cmax [1, 12] was 2510 ng/mL, the Tmax ([1]; oral, 750 mg, Day 13, after RE 750 mg BID + metformin, N = 16, read-out: tmax, median (range)) was 1.3 h and the Tmax ([1]; po, after concomitant oral administration of RE with metformin (discussion), read-out: Time of peak concentration (range)) was 0.5 to 4 h.
In the case of `CN(C)C(=N)N=C(N)N` [Metformin, metformin, reference compound], the “Effect of metformin on the pharmacokinetics of RE or its metabolites” value (subjects with T2DM [2]) is listed as “no effect”, the “Change in fluid balance, Mean (SD)” value ([3]; Day 2) is listed as 203.5 (999.83) ml and the “Change in fluid balance, Mean (SD)” value ([3]; Day 13) is listed as −42.0 (1262.56) ml. For the same molecule, the “Weighted mean plasma insulin following OGTT, Mean (SD)” value (subjects with T2DM [4]) was 176.85(104.735) pmol/L, the “Any AE” value (subjects with T2DM [5]; Placebo BID + metformin >=2000 mg/day, 13 days, N = 17) was 3 (18%) N(%) and the Diarrhoea (subjects with T2DM [5]; [13]) was 1 (6%) N(%). For the same molecule, the Dizziness (subjects with T2DM [5]; [13]) was 0 N(%), the Dyslipidemia (subjects with T2DM [5]; [13]) was 0 N(%) and the Supraventricular tachycardia (subjects with T2DM [5]; [13]) was 0 N(%). For the same molecule, the Thirst (subjects with T2DM [5]; [13]) was 1 (6%) N(%), the Vomiting (subjects with T2DM [5]; [13]) was 0 N(%) and the “Subjects with hypoglycemic laboratory events” value (subjects with T2DM [5]; placebo + metformin group, mild, resolved without intervention) was “one”. The “Metformin Cmax, geometric mean” value [6, 14] was 2041 ng/mL, the “Metformin tmax, median” value [6, 14] was 2.5 h and the “Metformin Cmax, geometric mean” value [6, 15] was 1695 ng/mL. For the same molecule, the “Metformin tmax, median” value [6, 15] was 2.0 h, the “Metformin tmax, median” value [6, 16] was 2.0 h and the “Metformin tmax, median” value [6, 17] was 3.0 h. It also gave an AUC [6, 14] of 14000 ng·h/mL, an AUC [6, 18] of 14700 ng·h/mL and an AUC [6, 15] of 11400 ng·h/mL. The AUC [6, 16] was 12300 ng·h/mL, the AUC [6, 17] was 13900 ng·h/mL and the AUC [6, 19] was 11300 ng·h/mL. For the same molecule, the Cmax [6, 18] was 2170 ng/mL, the Cmax [6, 16] was 1970 ng/mL and the Cmax [6, 17] was 2160 ng/mL. The Cmax [6, 19] was 1760 ng/mL, the “Change from baseline in body weight, Mean (SD)” value (Body weight; Day 2) was −0.70 (0.679) kg and the “Change from baseline in body weight, Mean (SD)” value (Body weight; Day 14) was −1.02 (0.845) kg. The “Fasting plasma lactic acid, maximum on-therapy absolute values, Mean (SD)” value (subjects with T2DM [7]; Placebo BID + metformin) was 1.554 (0.5094) mmol/L, the “Fasting plasma lactic acid, maximum on-therapy change from baseline, Mean (SD)” value (subjects with T2DM [7]; Placebo BID + metformin) was 0.460 (0.2289) mmol/L and the “Fasting plasma lactic acid change from baseline, Mean (SD)” value (“Fasting plasma lactic acid change … (SD)” for short) (subjects with T2DM [7]; Study Day 2, Placebo BID + metformin) was 0.16 (0.266) mmol/L. For the same molecule, the “Fasting plasma lactic acid change … (SD)” value (subjects with T2DM [7]; Study Day 6, Placebo BID + metformin) was 0.08 (0.288) mmol/L, the “Fasting plasma lactic acid change … (SD)” value (subjects with T2DM [7]; Study Day 13, Placebo BID + metformin) was 0.00 (0.304) mmol/L and the “Subjects with lactic acid greater than the upper limits of normal (ULN) at any time” value (subjects with T2DM [7]; while receiving metformin alone, not sustained, minimally above ULN) was “four”. For the same molecule, the “Weighted mean plasma glucose following OGTT, Mean (SD)” value (subjects with T2DM [8]; Day 1 (baseline)) was 12.65 (3.306) mmol/L, the “Weighted mean plasma insulin following OGTT, Mean (SD)” value (subjects with T2DM [8]; Day 13) was 162.97(97.374) pmol/L and the “Weighted mean plasma glucose, change from baseline, Mean (SD)” value (subjects with T2DM [8]) was −0.10 (1.572) mmol/L. For the same molecule, the “Weighted mean plasma insulin, change from baseline, Mean (SD)” value (subjects with T2DM [8]) was −13.88(42.349) pmol/L.
